{"source": "patent US8394596B1", "about": "(priority 2012, dated 2013)", "assay_type_in_all_cases": "binding", "key": {"[1]": {"test_system": "rabbit anti-BMAA antibody"}, "[2]": {"test_system": "rabbit anti-BMAA antibody", "experiment": "Competitive ELISA for BMAA on anti-rabbit IgG coated plates, estimate of sensitivity (Example 6)", "details": "antibody harvested after fourth booster", "method": "Rabbits were immunized with 0.5-1.0 mg of immunizing conjugate per rabbit per injection. The immunizing conjugate was emulsified with Complete Freund's Adjuvant for primary injections and with Incomplete Freund's Adjuvant for booster injections. Three or four booster injections were performed at monthly intervals to raise the desired titers. The rabbits were bled on 12±3 days following each booster injection. Antisera were monitored for titer and analyte specificity by capturing the relevant antibodies on ELISA plates coated with anti-rabbit IgG. The captured antibodies were measured in a subsequent step by incubating the plates with a BMAA-horseradish peroxidase (BMAA-HRP).\nThree rabbits were immunized with an immunogen in which EDC was used to link BMAA to BSA according to Example 1. Three rabbits were immunized with an immunogen in which DSS was used to link BMAA to BSA according to Example 2. The rabbit with the highest antibody titer when tested with sera collected 14 days after the fourth booster was a rabbit that had been immunized with an immunogen in which DSS was used to link BMAA to BSA according to Example 2. Antibodies from that rabbit, harvested 14 days after the fourth booster were used to generate the data obtained from Example 6 below. Antibodies from that rabbit, harvested 14 days after the fourth booster were used to generate the data obtained from Example 8 below.\n(§1) The ELISA method: • 1. Add either 100 μL of either a BMAA solution (0, 10, 25, 50, 100, 250, 500, 1000 ng/mL of BMAA) as a calibrator/standard solutions or 100 μL of a test sample into the wells of the test strips (coated with anti-rabbit IgG). Analysis in duplicate or triplicate is recommended. • 2. Add 50 μL of enzyme conjugate solution (BMAA-HRP) to the individual wells successively using a multi-channel pipette or a stepping pipette. • 3. Add 50 μL of antibody solution (rabbit anti-BMAA; for example one made by diluting by a factor of 8000 antiserum from a rabbit immunized according to Example 3 using BMAA-BSA as the immunogen) to the individual wells successively using a multi-channel pipette or a stepping pipette. Cover the wells with parafilm or tape and mix the contents by moving the strip holder in a circular motion on the benchtop for 30 seconds. Be careful not to spill the contents. The foregoing creates a total assay volume of 200 μL. • 4. Incubate the strips for 90 minutes at room temperature. • 5. Remove the covering and decant the contents of the wells into a sink. Wash the strips four times using the diluted washing buffer solution (1×PBS with 0.1% Tween), using at least a volume of 250 μL of washing buffer for each well in each washing step. Remaining buffer in the wells should be removed by patting the inverted plate dry on a stack of paper towels. • 6. Add 150 μL of substrate (color) solution ((TMB), BioFX cat #TMBW-1000 from Surmodics), to the wells. Cover the wells with parafilm or tape and mix the contents by moving the strip holder in a circular motion on the benchtop for 30 seconds. Be careful not to spill the contents. Incubate the strips for 30 minutes at room temperature. Protect the strips from direct sunlight. • 7. Add 100 μL of stop solution (2N HCl) to the wells in the same sequence as for the substrate solution. • 8. Read the absorbance at 450 nm using a microplate ELISA photometer within 15 minutes after the addition of stopping solution using a computer interfaced ELISA reader (Molecular Devices, Sunnyvale, Calif.). BMAA concentration in the unknown samples was estimated by comparison with a concurrently-run standard curve.\nThe procedure of Example 5 was followed using known amounts of BMAA. (The antibody preparation was that specified in Example 3 as having been used for Example 6). “Concentration (ng/ml)” refers to the concentration of the BMAA in the 100 μL of calibrator/standard solution referred to in step (1) of Example 5. […]"}, "[3]": {"test_system": "rabbit anti-BMAA antibody", "experiment": "Competitive ELISA for BMAA, second estimate of sensitivity with later-harvested antibody (Example 8)", "details": "antibody harvested after the 6th boost", "method": "as §1\nThe procedure of Example 6 was followed except that (1) the BMAA concentrations tested were 5, 10, 25, 100, 250 and 500 ppb (corresponding to 5, 10, 25, 100, 250 and 500 ng/ml) and (2) an antibody preparation harvested later than that used for Example 6 was used. The antibodies harvested for this example were harvested after the 6th boost.\nThe sensitivity of the assay was estimated to be 2.5 ppb."}, "[4]": {"details": "relative to BMAA 50% inhibition at 170 ng/ml, 0.2% compounds tested up to 500 ug/mL, 0.1% up to 1 mg/ml"}}, "note": "Where two headings read alike, the source gives them in different places."}
{"smiles": "Cl.NCCC(N)C(=O)O", "note": "(racemic) [D,L-2,4-Diaminobutyric acid hydrochloride]", "values": [{"measurement": "Cross-reactivity", "setting": "[1]; [4]", "value": 0.1, "unit": "%"}]}
{"smiles": "CNC[C@H](N)C(=O)O", "note": "[BMAA, β-N-methylamino-L-alanine]", "values": [{"measurement": "B/Bo (%)", "setting": "[2]; BMAA 10 ng/ml in 100 μL standard solution", "value": 93, "unit": "%"}, {"measurement": "B/Bo (%)", "setting": "[2]; BMAA 25 ng/ml in 100 μL standard solution", "value": 85, "unit": "%"}, {"measurement": "B/Bo (%)", "setting": "[2]; BMAA 50 ng/ml in 100 μL standard solution", "value": 77, "unit": "%"}, {"measurement": "B/Bo (%)", "setting": "[2]; BMAA 100 ng/ml in 100 μL standard solution", "value": 64, "unit": "%"}, {"measurement": "B/Bo (%)", "setting": "[2]; BMAA 250 ng/ml in 100 μL standard solution", "value": 44, "unit": "%"}, {"measurement": "B/Bo (%)", "setting": "[2]; BMAA 500 ng/ml in 100 μL standard solution", "value": 29, "unit": "%"}, {"measurement": "B/Bo (%)", "setting": "[2]; BMAA 1000 ng/ml in 100 μL standard solution", "value": 18, "unit": "%"}, {"measurement": "sensitivity of the assay: concentration of BMAA needed to reduce B/Bo by 5 percent", "setting": "[2]; Example 6", "value": 7.5, "unit": "ppb"}, {"measurement": "concentration of BMAA causing 50% inhibition in the assay", "setting": "[1]; concentration in the 100 μL standard solution", "value": 170, "unit": "nanograms/ml"}, {"measurement": "Cross-reactivity", "setting": "[1]; [4]", "value": 100, "unit": "%"}, {"measurement": "B/Bo (%)", "setting": "[3]; BMAA 5 ng/ml", "value": 93, "unit": "%"}, {"measurement": "B/Bo (%)", "setting": "[3]; BMAA 10 ng/ml", "value": 88, "unit": "%"}, {"measurement": "B/Bo (%)", "setting": "[3]; BMAA 25 ng/ml", "value": 77, "unit": "%"}, {"measurement": "B/Bo (%)", "setting": "[3]; BMAA 100 ng/ml", "value": 49, "unit": "%"}, {"measurement": "B/Bo (%)", "setting": "[3]; BMAA 250 ng/ml", "value": 30, "unit": "%"}, {"measurement": "B/Bo (%)", "setting": "[3]; BMAA 500 ng/ml", "value": 19, "unit": "%"}, {"measurement": "sensitivity of the assay: concentration of BMAA needed to reduce B/Bo by 5 percent", "setting": "[3]; Example 8", "value": 2.5, "unit": "ppb"}]}
{"smiles": "N[C@@H](CC(=O)O)C(=O)O", "note": "[L-Aspartic acid]", "values": [{"measurement": "Cross-reactivity", "setting": "[1]", "value": 0.2, "unit": "%"}]}
{"smiles": "Cl.N[C@@H](CS)C(=O)O", "note": "[L-Cysteine hydrochloride]", "values": [{"measurement": "Cross-reactivity", "setting": "[1]; [4]", "value": 0.2, "unit": "%"}]}
{"smiles": "N[C@@H](CCC(=O)O)C(=O)O", "note": "[L-Glutamic acid]", "values": [{"measurement": "Cross-reactivity", "setting": "[1]; [4]", "value": 0.2, "unit": "%"}]}
{"smiles": "NCCCC(=O)O", "note": "[γ-Aminobutyric acid]", "values": [{"measurement": "Cross-reactivity", "setting": "[1]; [4]", "value": 0.2, "unit": "%"}]}
